The text below walks through data of US4009273A, “Substituted 10,11-dihydro-5,10-imino-[5H] dibenzo (a,d)-cycloheptene” (priority 1972, dated 1977).

One series is described as follows: Acute toxicity. To be noted: mouse, in vivo, ip, Swiss mice, observed for a week. As to the method:
The acute toxicity was determined on groups of Swiss mice weighing 18 to 22 g and the test products were administered intraperitoneally in increasing doses and the animals were kept under observation for a week.

The next series relates to amphetamine deaths. As to the kind of experiment: Amphetamine toxicity in mice. In kind it is in vivo, mice (female). To be noted: for ratio of number of dead animals to number of starting animals: 1 h before 15 mg/kg amphetamine, mortality at 4 h. As to the method: The test was effected on group of 10 female mice weighing between 18 and 22 g kept at 27° C for the duration of the test. The test products were intraperitoneally administered in different doses in a volume of 0.01 ml /g of mouse. One hour later, the mice received an injection of 15 mg/kg of a solution of 1.5 mg of amphetamine per ml of physiological serum. The mortality 4 hours after the amphetamine injection was determined and the results were expressed as a ratio of number of dead animals to number of starting animals.

The subject of series [1] is pentamethylenetetrazol convulsions. The experiment in a line: Anticonvulsant effect (pentamethylenetetrazol perfusion). In kind it is in vivo, mice (female). To be noted: 1 h before perfusion. As to the method:
The anticonvulsant activity of the compounds was determined on groups of 10 female mice with intraperitoneal administration of the test compounds in acid solution at different doses and the control group received only the solvent. One hour after the injection, the mice were perfused with a solution of pentamethylenetetrazol in physiological serum at a concentration of 3 mg/ml. The perfusion was intraveinous at a rate of 1 ml per minute and in the course of the perfusion, the progress of introxication was characterized by the following 3 criteria:
a. Threshold of convulsant effect (myoclonia of the ears)
b. Crisis of clonic convulsions
c. Tonic convulsion with apnea and generally followed by death.

For another series, the system named is amytal sleeping time. As to the kind of experiment: Potentialization of sleeping time (amytal). In kind it is in vivo, mice (female). To be noted: 1 h before 80 mg/kg amytal i.v. As to the method:
The potentialization of sleeping time was determined with a test using amytal [5-ethyl-5-isoamyl-barbituric acid] in which groups of female mice weighing between 18 and 22 g were kept at 25° C for the duration of the test. The test products were administered intraperitoneally at different doses one hour before intraveinous injection of 80 mg/kg of amytal and the sleeping time was noted which is the time while the reflux of straightening in the mice was negative.

Compound `c1ccc2c(c1)CC1NC2c2ccccc21` (stereo not drawn) [Example 1, 10,11-dihydro-5,10-imino-[5H]-dibenzo (a,d) cycloheptene dl] registered an LD50 at 168 h in the series “Acute toxicity” of 150 mg/kg. Besides, the “ratio of number of dead animals to number of starting animals” value (from here on “ratio of number of dead animals”) in the series with amphetamine deaths (1 mg/Kg i.p.) is listed as 10/10; with amphetamine deaths (2 mg/Kg i.p.) it was 5/10; in the series on amphetamine deaths (200γ/Kg i.p.), 9/10; in the series with amphetamine deaths (500γ/Kg i.p.) it was 9/10.

With `CN1C2Cc3ccccc3C1c1ccccc12` (stereo not drawn) [Example 15, 12-methyl-10,11-dihydro-5,10-imino-[5H]-dibenzo (a,d) cycloheptene dl], the “Dose of pentamethylenetetrazol, Clonic Crisis” value (“Dose … Clonic Crisis” below) in series [1] (1 mg/Kg i.p.) was determined as 44.0 mg/kg; in series [1] (2 mg/Kg i.p.) it was 52.9 mg/kg; in series [1] (200γ/Kg i.p.), 43.0 mg/kg; in series [1] (500γ/Kg i.p.), 45.9 mg/kg. For the same compound, the “Dose of pentamethylenetetrazol, Myoclonia” value (from here on “Dose … Myoclonia”) was found to be 38.1 mg/kg in series [1] (1 mg/Kg i.p.), 46.7 mg/kg in series [1] (2 mg/Kg i.p.), 38.1 mg/kg in series [1] (200γ/Kg i.p.) and 41.1 mg/kg in series [1] (500γ/Kg i.p.). Further, the “Dose of pentamethylenetetrazol, Tonic Crisis” value (shortened to “Dose … Tonic Crisis”) in series [1] (1 mg/Kg i.p.) turned out to be 182.7 mg/kg; in series [1] (2 mg/Kg i.p.), 231.8 mg/kg; in series [1] (200γ/Kg i.p.) it was 122.7 mg/kg; in series [1] (500γ/Kg i.p.), 134.9 mg/kg. Besides, the LD50 at 168 h in the series “Acute toxicity” stood at 175 mg/kg. Also, the “ratio of number of dead animals” value in the series with amphetamine deaths (1 mg/Kg i.p.) is on record as 6/10; in the series with amphetamine deaths (2 mg/Kg i.p.), 1/10; with amphetamine deaths (5 mg/Kg i.p.), 0/10; in the series with amphetamine deaths (10 mg/Kg i.p.) it was 0/10; with amphetamine deaths (200γ/Kg i.p.), 10/10; with amphetamine deaths (500γ/Kg i.p.), 8/10. In addition, in the series on amphetamine deaths (Mus musculus, ip, 4 h, i.p., mice, read-out: DA50 (dose which reduced by half the amphetamine deaths)), the ED50 was 1 mg/kg. The average sleeping time in the series with amytal sleeping time (0.5 mg/Kg i.p.) was determined as 33.9 min; with amytal sleeping time (1 mg/Kg i.p.), 32.9 min; with amytal sleeping time (2 mg/Kg i.p.), 30.6 min; in the series with amytal sleeping time (5 mg/Kg i.p.) it was 42.9 min; in the series on amytal sleeping time (10 mg/Kg i.p.) it was 78.6 min.

`C[N+]1(C)C2Cc3ccccc3C1c1ccccc12` (stereo not drawn) [Example 16, 12-methyl-10,11-dihydro-5,10-imino-[5H]-dibenzo (a,d) cycloheptene dl iodomethylate] had an LD50 at 168 h in “Acute toxicity” of over 200 mg/kg.

With `CNCC(=O)N1C2Cc3ccccc3C1c1ccccc12` (stereo not drawn) [Example 25, 12-(methylaminoacetyl)-10,11-dihydro-5,10-imino-[5H]-dibenzo (a,d) cycloheptene dl], the LD50 at 168 h in the series “Acute toxicity” was about 300 mg/kg.

Turning to `C#CCN1C2Cc3ccccc3C1c1ccccc12` (stereo not drawn) [Example 20, 12-propargyl-10,11-dihydro-5,10-imino-[5H]-dibenzo (a,d) cycloheptene dl], the “Dose … Clonic Crisis” value was found to be 49.1 mg/kg in series [1] (0.5 mg/Kg i.p.), 46.7 mg/kg in series [1] (1 mg/Kg i.p.), 46.2 mg/kg in series [1] (2 mg/Kg i.p.) and 49.0 mg/kg in series [1] (5 mg/Kg i.p.). Moreover, the “Dose … Myoclonia” value in series [1] (0.5 mg/Kg i.p.) was found to be 44.2 mg/kg; in series [1] (1 mg/Kg i.p.) it was 41.9 mg/kg; in series [1] (2 mg/Kg i.p.), 41.2 mg/kg; in series [1] (5 mg/Kg i.p.) it was 43.9 mg/kg. The “Dose … Tonic Crisis” value was 140.7 mg/kg in series [1] (0.5 mg/Kg i.p.), 146.4 mg/kg in series [1] (1 mg/Kg i.p.), 168.5 mg/kg in series [1] (2 mg/Kg i.p.) and 221.7 mg/kg in series [1] (5 mg/Kg i.p.). Besides, the “ratio of number of dead animals” value in the series on amphetamine deaths (2 mg/Kg i.p.) is on record as 9/10; in the series with amphetamine deaths (5 mg/Kg i.p.) it was 9/10; in the series with amphetamine deaths (10 mg/Kg i.p.), 7/10; with amphetamine deaths (20 mg/Kg i.p.), 1/10. Besides, the average sleeping time amounted to 41.8 min in the series with amytal sleeping time (0.5 mg/Kg i.p.), 46.5 min with amytal sleeping time (1 mg/Kg i.p.), 49.4 min in the series with amytal sleeping time (2 mg/Kg i.p.) and 64.9 min with amytal sleeping time (5 mg/Kg i.p.).

The compound `c1ccc(CN2C3Cc4ccccc4C2c2ccccc23)cc1` (stereo not drawn) [Example 23, 12-benzyl-10,11-dihydro-5,10-imino-[5H]-dibenzo (a,d) cycloheptene dl] registered an LD50 at 168 h in “Acute toxicity” of over 400 mg/kg.

Compound `CCOC(=O)N1C2Cc3ccccc3C1c1ccccc12` (stereo not drawn) [Example 17, 12-carbethoxy-10,11-dihydro-5,10imino-[5H]-dibenzo (a,d) cycloheptene dl] had an LD50 at 168 h in “Acute toxicity” of 1000 mg/kg.

On to `CC(=O)N1C2Cc3ccccc3C1c1ccccc12` (stereo not drawn) [Example 10, 12-acetyl-10,11-dihydro-5,10-imino-5H]-dibenzo (a,d) cycloheptene dl], for which, in “Acute toxicity”, the LD50 at 168 h is over 500 mg/kg.

With `O=C(Oc1ccccc1[N+](=O)[O-])N1C2Cc3ccccc3C1c1ccccc12` (stereo not drawn) [Example 8, 12-(o-nitrophenoxycarbonyl)-10,11-dihydro-5,10-imino-[5H]-dibenzo (a,d) cycloheptene dl], the LD50 at 168 h in the series “Acute toxicity” was over 1000 mg/kg.

For the compound `NC(=O)N1C2Cc3ccccc3C1c1ccccc12` (stereo not drawn) [Example 13, 12-carbamoyl-10,11-dihydro-5,10-imino-[5H]-dibenzo (a,d) cycloheptene dl], the LD50 at 168 h in “Acute toxicity” was 1000 mg/kg.

`CP(C)(=O)CN1C2Cc3ccccc3C1c1ccccc12` (stereo not drawn) [Example 9, 12-dimethylphosphorosomethyl-10.11-dihydro-5,10-imino-[5H]-dibenzo (a,d) cycloheptene dl]: the LD50 at 168 h in “Acute toxicity” turned out to be 350 mg/kg.

Turning to `C=CCN1C2Cc3ccccc3C1c1ccccc12` (stereo not drawn) [Example 19, 12-allyl-10,11-dihydro-5,10-imino-[5H]-dibenzo (a,d) cyclo-heptene dl], the “Dose … Clonic Crisis” value in series [1] (2 mg/Kg i.p.) turned out to be 50.0 mg/kg; in series [1] (5 mg/Kg i.p.), 49.8 mg/kg; in series [1] (10 mg/Kg i.p.), 52.4 mg/kg; in series [1] (20 mg/Kg i.p.), 54.7 mg/kg. The “Dose … Myoclonia” value worked out at 44.8 mg/kg in series [1] (2 mg/Kg i.p.), 44.5 mg/kg in series [1] (5 mg/Kg i.p.), 47.4 mg/kg in series [1] (10 mg/Kg i.p.) and 49.2 mg/kg in series [1] (20 mg/Kg i.p.). Moreover, the “Dose … Tonic Crisis” value was determined as 150.8 mg/kg in series [1] (2 mg/Kg i.p.), 136.0 mg/kg in series [1] (5 mg/Kg i.p.), 241.9 mg/kg in series [1] (10 mg/Kg i.p.) and 271.8 mg/kg in series [1] (20 mg/Kg i.p.). Moreover, the LD50 at 168 h in the series “Acute toxicity” was 350 mg/kg. For the same compound, the average sleeping time was 37.1 min in the series with amytal sleeping time (2 mg/Kg i.p.), 65.1 min in the series on amytal sleeping time (5 mg/Kg i.p.), 71.7 min with amytal sleeping time (10 mg/Kg i.p.) and over 120 min with amytal sleeping time (20 mg/Kg i.p.).
